Columns and labels:
[1] = Accelerated stability test (PXRD); type: physicochemical; conditions: for stability under high temperature: high temperature (60 ± 1 °C), phase changes reported after 5 days
Experimental: Approximately 50 mg of powdered samples were stored under the three test conditions and measured at regular time intervals (0, 5, and 10 days) by PXRD.

[2] = cited from earlier work; for aqueous solubility of CCFs in water: water at 25 °C, no reference given
[3] = Apparent powder dissolution in ultrapure water; type: physicochemical; conditions: 37 °C, 100 rpm, rank among the three cocrystal hydrates
Experimental: Sampling was conducted by withdrawing 1 mL aliquot of the sample at time intervals of 5, 10, 15, 20, 30, 45, 60, 90, and 120 min from the vessel and filtered through a 0.45 μm syringe tip filter, and the aliquots were assayed on a high-performance liquid chromatography (HPLC) system. The measurements of the powder dissolution rate were repeated in triplicate.
(§1) The HPLC (Agilent Technologies, Santa Clara, USA) system was equipped with a UV detector and an Agilent Eclipse XDB−C18 (250 mm × 4.6 mm, 5 μm) column with the temperature set to 30 °C. The mobile phase consisted of acetonitrile and water (25:75, v:v) with a flow rate of 1.0 mL min^−1. The injection volume was 10 μL and the detection wavelength was set to 261 nm.

[4] = Intrinsic dissolution rate (IDR) in ultrapure water; type: physicochemical; conditions: 37 °C; for order of intrinsic dissolution rate: ultrapure water, 100 rpm, rank among the three cocrystal hydrates
Experimental: The resulting disk has a flat surface of 0.5 cm^2. Then, the disk was dipped into a vessel containing 900 mL ultrapure water at 37 ± 0.2 °C, with the paddle rotating at 100 rpm. At time intervals (60, 75, 90, 120, 150, 180, 210, 240, 270, and 300 min), 1 mL of the dissolution medium was withdrawn manually. After filtration through a 0.45 μm syringe tip filter, the aliquots were assayed on an HPLC system. Each experiment was repeated in triplicate.
as §1

Row | SMILES | stability under high temperature ([1]; PXRD at 0, 5 and 10 days) | aqueous solubility of CCFs in water [2] | order of apparent dissolution rate [3] | order of intrinsic dissolution rate [4] | further results
1 | O.O.O=C(O)c1ccc(O)c(O)c1.OC(Cn1cncn1)(Cn1cncn1)c1ccc(F)cc1F.OC(Cn1cncn1)(Cn1cncn1)c1ccc(F)cc1F [FLZ−34DHB−H2O (1:0.5:1)] | converted to the physical mixture of amorphous and crystalline phases |  |  |  | 
2 | O=C(O)c1ccc(O)c(O)c1 [34DHB, 3,4-dihydroxybenzoic acid] |  | 29 mg/mL |  |  | 
3 | OC(Cn1cncn1)(Cn1cncn1)c1ccc(F)cc1F [FLZ, 2-(2,4-difluorophenyl)-1,3-di(1H-1,2,4-triazol-1-yl)propan-2-ol, reference compound] |  |  |  |  | aqueous solubility ([2]; FLZ form II): 2 to 8 mg/mL
4 | O.OC(Cn1cncn1)(Cn1cncn1)c1ccc(F)cc1F [FLZ monohydrate, reference compound] | converted to FLZ form II |  |  |  | 
5 | O=C(O)c1cc(O)cc(O)c1 [35DHB, 3,5-dihydroxybenzoic acid] |  | 84 mg/mL |  |  | 
6 | O.O.O=C(O)c1ccc(O)cc1O.OC(Cn1cncn1)(Cn1cncn1)c1ccc(F)cc1F.OC(Cn1cncn1)(Cn1cncn1)c1ccc(F)cc1F [FLZ−24DHB−H2O (1:0.5:1)] | converted to the physical mixture of amorphous and crystalline phases |  | FLZ−35DHB−H2O (1:1:1) > FLZ−34DHB−H2O (1:1:1) > FLZ−24DHB−H2O (1:0.5:1) | FLZ−35DHB−H2O (1:1:1) > FLZ−34DHB−H2O (1:1:1) > FLZ−24DHB−H2O (1:0.5:1) | 
7 | O=C(O)c1ccc(O)cc1O [24DHB, 2,4-dihydroxybenzoic acid] |  | 8 mg/mL |  |  | 
8 | O.O=C(O)c1ccc(O)c(O)c1.OC(Cn1cncn1)(Cn1cncn1)c1ccc(F)cc1F [FLZ−34DHB−H2O (1:1:1)] | stable |  | FLZ−35DHB−H2O (1:1:1) > FLZ−34DHB−H2O (1:1:1) > FLZ−24DHB−H2O (1:0.5:1) | FLZ−35DHB−H2O (1:1:1) > FLZ−34DHB−H2O (1:1:1) > FLZ−24DHB−H2O (1:0.5:1) | hygroscopicity relative to FLZ ([1]; compared with commercialized FLZ form II): significantly reduces hygroscopicity; stability under high humidity ([1]; high humidity (90 ± 5%, 25 °C), PXRD at 0, 5 and 10 days): stable; stability under illumination ([1]; illumination (4500 ± 500 lx, 25 °C), PXRD at 0, 5 and 10 days): stable
9 | O.O=C(O)c1cc(O)cc(O)c1.OC(Cn1cncn1)(Cn1cncn1)c1ccc(F)cc1F [FLZ−35DHB−H2O (1:1:1)] | forming an anhydrous form |  | FLZ−35DHB−H2O (1:1:1) > FLZ−34DHB−H2O (1:1:1) > FLZ−24DHB−H2O (1:0.5:1) | FLZ−35DHB−H2O (1:1:1) > FLZ−34DHB−H2O (1:1:1) > FLZ−24DHB−H2O (1:0.5:1) | IDR compared with FLZ form II ([4]; ultrapure water 900 mL, paddle 100 rpm, disk 0.5 cm^2): higher IDR

— PMC9694130, “Design, Preparation, Characterization and Evaluation of Five Cocrystal Hydrates of Fluconazole with Hydroxybenzoic Acids” (Pharmaceutics, 2022)
